Laboratory results taken from PMC10020548, “Synthesis and structure–activity relationship studies of benzimidazole-thioquinoline derivatives as α-glucosidase inhibitors” (Scientific Reports, 2023).
Read-outs that look alike come from different tables or passages of the source.

Legend:
[1] = target: T1, α-Glucosidase enzyme (EC3.2.1.20, Saccharomyces cerevisiae) (Saccharomyces cerevisiae, UniProt P53341); assay: biochemical; details: α-glucosidase from S. cerevisiae, substrate p-nitrophenyl glucopyranoside, pH 6.8, 37 °C; mean ± SD
T1 construct: purchased Sigma-Aldrich
Procedure: α-Glucosidase enzyme (EC3.2.1.20, Saccharomyces cerevisiae, 20 U/mg) and substrate (p-nitrophenyl glucopyranoside) were purchased from Sigma-Aldrich. 1 mg of α-glucosidase was dissolved in potassium phosphate buffer (50 mM, pH = 6.8) to obtain the initial activity of 1 U ml^–1. Then, 20 µl of this enzyme solution was incubated with 135 µl of potassium phosphate buffer and 20 µl of test compound at various concentrations in DMSO. Therefore, the final concentration of the enzyme was about 0.1 U ml^–1. After 10 min incubation at 37 °C, 25 µl of the substrate at a final concentration of 4 mM was added to the mixture and allowed to incubate at 37 °C for 20 min.
The percentage of inhibition for each entry was calculated by using the following formula: %Inhibition=[(Abscontrol-Abssample)/Abscontrol]×100 IC50 values were obtained from the nonlinear regression curve using the Logit method.

α-glucosidase [2] = details: cited from earlier work
α-glucosidase [3] = target: α-glucosidase (Saccharomyces cerevisiae, UniProt P53341); assay: Enzyme kinetic studies (Lineweaver–Burk plot, secondary plot); assay type: biochemical
Procedure: A Lineweaver–Burk plot was generated to identify the type of inhibition and the Michaelis–Menten constant (Km) value was determined from the plot between the reciprocal of the substrate concentration (1/[S]) and reciprocal of enzyme rate (1/V) over various inhibitor concentrations. The experimental inhibitor constant (Ki) value was constructed by secondary plots of the inhibitor concentration [I] versus Km[43],[44].

LO2 cells = test system: LO2 cells; parameters: method as in PMID 34717239; details: cited from earlier work
α-glucosidase [4] = test system: α-glucosidase; parameters: method as in PMID 34717239; details: cited from earlier work

T1 sequence (P53341 whole entry): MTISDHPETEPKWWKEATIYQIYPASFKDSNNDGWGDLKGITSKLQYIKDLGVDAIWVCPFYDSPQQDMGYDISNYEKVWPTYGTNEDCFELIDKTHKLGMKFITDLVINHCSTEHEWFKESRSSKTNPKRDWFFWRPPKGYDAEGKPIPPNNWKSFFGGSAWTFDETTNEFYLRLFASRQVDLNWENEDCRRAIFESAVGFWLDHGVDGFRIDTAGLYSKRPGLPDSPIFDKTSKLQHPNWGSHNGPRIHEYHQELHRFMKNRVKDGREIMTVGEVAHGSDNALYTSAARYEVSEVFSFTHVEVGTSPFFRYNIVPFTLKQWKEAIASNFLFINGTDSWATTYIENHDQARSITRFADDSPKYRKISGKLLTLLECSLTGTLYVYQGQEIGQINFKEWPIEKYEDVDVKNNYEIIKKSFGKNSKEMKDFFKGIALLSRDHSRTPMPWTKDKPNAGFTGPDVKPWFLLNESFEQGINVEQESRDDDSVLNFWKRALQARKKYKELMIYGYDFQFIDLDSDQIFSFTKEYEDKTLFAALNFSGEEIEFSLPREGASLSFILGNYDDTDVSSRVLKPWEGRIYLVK
α-glucosidase (Saccharomyces cerevisiae, UniProt P53341), sequence (P53341 whole entry): as above

| Structure (SMILES) | IC50 [1] | further results |
| --- | --- | --- |
| c1ccc(CSc2nc3ccccc3cc2-c2nc3ccccc3[nH]2)cc1 [Compound 6a, 3-(1H-benzo[d]imidazol-2-yl)-2-(benzylthio) quinoline] | 153.7 ± 0.9 µM | – |
| CCSc1nc2ccccc2cc1-c1nc2ccccc2[nH]1 [Compound 6r, 3-(1H-benzo[d]imidazol-2-yl)-2-(ethylthio)quinoline] | 300.7 ± 2 µM | – |
| Clc1ccccc1CSc1nc2ccccc2cc1-c1nc2ccccc2[nH]1 [Compound 6e, 3-(1H-benzo[d]imidazol-2-yl)-2-((2-chlorobenzyl)thio)quinoline] | 663.7 ± 1.2 µM | – |
| Fc1ccccc1CSc1nc2ccccc2cc1-c1nc2ccccc2[nH]1 [Compound 6b, 3-(1H-benzo[d]imidazol-2-yl)-2-((2-fluorobenzyl)thio)quinoline] | 188 ± 2.4 µM | – |
| Cc1cccc(CSc2nc3ccccc3cc2-c2nc3ccccc3[nH]2)c1C [Compound 6o, 3-(1H-benzo[d]imidazol-2-yl)-2-((2,3-dimethylbenzyl)thio)quinoline] | 126.9 ± 0.5 µM | – |
| Fc1ccc(CSc2nc3ccccc3cc2-c2nc3ccccc3[nH]2)cc1 [Compound 6d, 3-(1H-benzo[d]imidazol-2-yl)-2-((4-fluorobenzyl)thio)quinoline] | 80.9 ± 1.1 µM | – |
| Brc1ccccc1CSc1nc2ccccc2cc1-c1nc2ccccc2[nH]1 [Compound 6h, 3-(1H-benzo[d]imidazol-2-yl)-2-((2-bromobenzyl)thio)quinoline] | 133.5 ± 1.3 µM | – |
| Clc1ccc(CSc2nc3ccccc3cc2-c2nc3ccccc3[nH]2)cc1 [Compound 6g, 3-(1H-benzo[d]imidazol-2-yl)-2-((4-chlorobenzyl)thio)quinoline] | 96.6 ± 0.1 µM | – |
| Cc1ccccc1CSc1nc2ccccc2cc1-c1nc2ccccc2[nH]1 [Compound 6l, 3-(1H-benzo[d]imidazol-2-yl)-2-((2-methylbenzyl)thio)quinoline] | 195.7 ± 0.6 µM | – |
| COc1ccc(CSc2nc3ccccc3cc2-c2nc3ccccc3[nH]2)cc1 [Compound 6q, 3-(1H-benzo[d]imidazol-2-yl)-2-((4-methoxybenzyl)thio)quinoline] | 67.3 ± 0.8 µM | – |
| O=[N+]([O-])c1ccc(CSc2nc3ccccc3cc2-c2nc3ccccc3[nH]2)cc1 [Compound 6p, 3-(1H-benzo[d]imidazol-2-yl)-2-((4-nitrobenzyl)thio)quinoline] | 89.2 ± 1.3 µM | – |
| Clc1ccc(CSc2nc3ccccc3cc2-c2nc3ccccc3[nH]2)cc1Cl [Compound 6k, 3-(1H-benzo[d]imidazol-2-yl)-2-((3,4-dichlorobenzyl)thio)quinoline] | 99.4 µM | – |
| Cc1cccc2nc(-c3ccccc3Cl)[nH]c12 [H] | – | IC50 (α-glucosidase [2]; benzimidazole of previous studies, read-out: IC50): 5.3 ± 0.1 µM |
| Brc1ccc(CSc2nc3ccccc3cc2-c2nc3ccccc3[nH]2)cc1 [Compound 6j, 3-(1H-benzo[d]imidazol-2-yl)-2-((4-bromobenzyl)thio)quinoline] | 28 ± 0.6 µM | Ki (α-glucosidase [3]; secondary plot of Km versus inhibitor concentration, read-out: inhibition constant, Ki): 28.1 µM; inhibition pattern (Lineweaver–Burk plot) (α-glucosidase [3]; substrate p-nitrophenyl α-D-glucopyranoside 1–16 mM, inhibitor 0, 7, 14, 28 µM): competitive inhibition |
| O=C(N/N=C/c1ccc(O)c(O)c1)c1ccc2ncccc2c1 [Compound C] | – | IC50 (α-glucosidase [2]; quinoline derivatives study, read-out: IC50): 6.2 ± 0.3 µM |
| O=c1c(C(c2c[nH]c3ccccc23)c2c[nH]c3ccccc23)cc2ccccc2n1Cc1ccccc1 [Compound D] | – | IC50 (α-glucosidase [2]; quinolone-bis(indolyl)methane hybrids study, read-out: IC50): 21.8 ± 1.8 µM |
| O=C(O)c1ccc2ccccc2n1 [Compound A, Quinoline-2-carboxylic acid] | – | IC50 (α-glucosidase [2]): 9.1 ± 2.3 µg/mL |
| Brc1ccc(CNc2cccc(-c3nc4ccccc4[nH]3)c2)cn1 [E] | – | IC50 (α-glucosidase [2]; in-house library hit, read-out: IC50): 37.9 ± 1.86 µM |
| Fc1cccc(CSc2nc3ccccc3cc2-c2nc3ccccc3[nH]2)c1 [Compound 6c, 3-(1H-benzo[d]imidazol-2-yl)-2-((3-fluorobenzyl)thio)quinoline] | 76.7 ± 0.7 µM | – |
| CC(C)(C)c1ccc(C(=O)Oc2cccc(-c3nc4ccccc4[nH]3)c2)cc1 [F] | – | cytotoxicity against LO2 cells (LO2 cells): no cytotoxicity; type of inhibition (kinetic study) (α-glucosidase [4]): non-competitive inhibition; IC50 (α-glucosidase [2]; 2-phenyl-1H-benzo[d]imidazole derivatives, read-out: IC50): 0.71 ± 0.02 µM |
| Cc1cc2nc(-c3ccc(C(=O)N/N=C/c4cc(O)c(O)c(O)c4)cc3)[nH]c2cc1C [G] | – | IC50 (α-glucosidase [2]; benzimidazole derivatives (Zawawi and coworkers), read-out: IC50): 8.4 ± 0.76 µM |
| O=C(N/N=C/c1ccc(O)c(O)c1)c1ccc(-c2nnc(-c3ccc4ncccc4c3)o2)cc1 [Compound B] | – | IC50 (α-glucosidase [2]; oxadiazole-quinoline study, read-out: IC50): 2.6 ± 0.01 µM |
| Brc1cccc(CSc2nc3ccccc3cc2-c2nc3ccccc3[nH]2)c1 [Compound 6i, 3-(1H-benzo[d]imidazol-2-yl)-2-((3-bromobenzyl)thio)quinoline] | 65.5 ± 2 µM | – |
| Cc1ccc(CSc2nc3ccccc3cc2-c2nc3ccccc3[nH]2)cc1 [Compound 6n, 3-(1H-benzo[d]imidazol-2-yl)-2-((4-methylbenzyl)thio)quinoline] | 116.6 ± 0.5 µM | – |
| Cc1cccc(CSc2nc3ccccc3cc2-c2nc3ccccc3[nH]2)c1 [Compound 6m, 3-(1H-benzo[d]imidazol-2-yl)-2-((3-methylbenzyl)thio)quinoline] | 158 ± 2.4 µM | – |
| Clc1cccc(CSc2nc3ccccc3cc2-c2nc3ccccc3[nH]2)c1 [Compound 6f, 3-(1H-benzo[d]imidazol-2-yl)-2-((3-chlorobenzyl)thio)quinoline] | 48.2 ± 0.4 µM | – |
